pEC50: −log10 of the molar value.
How the values were obtained:
[1] = tested on: GT1a S282T NS5B mutant replicon; test: HCV NS5B mutant replicon assay, GT1a S282T; type: cell-based; conditions: Hepatitis C virus, Huh-7, 72 h, read-out: GT1a S282T EC50
Description: (§1) The antiviral activity of the test compounds was assessed in the wild type GT1b (Con1), GT1a (H77), and GT1b/2a, GT1b/3a, GT1b/4a and GT1b/5a NS5B chimeric replicons, as well as the NS5B mutant replicons listed in Table 2a and 2b.
(§2) The HCV replicon mutants were generated by site-directed mutagenesis (SDM). The SDM was performed by PCR and the PCR fragments were inserted into the backbone replicon construct. The inserted PCR fragments and the mutants were confirmed by sequencing.
(§3) All the replicon assays were luciferase based in Huh-7 cells, either in stable format (GT1b and GT1a) or by transient transfection by electroporation (chimeric and mutant replicons). For a standard HCV replicon assay, stable or transiently transfected Huh-7 cells were seeded in 96-well plates (5,000 cells/well), cultured in DMEM containing 10% FBS, and incubated at 37° C., 5% CO2. On the following day, test compounds were diluted with assay media and added to the appropriate wells (final DMSO concentration in the cell culture medium was 0.5%). Assay reference positive control was included in each run to ensure assay performance. Cells were incubated at 37° C., 5% CO2 for 72 hours, at which time the cells were still sub-confluent. The antiviral activity was determined by measuring replicon reporter firefly luciferase activity using Bright Glo kit in accordance with the protocol provided by the supplier (Promega). The toxicity of the test compounds was assessed by CytoTox-1 cell proliferation assay (Promega). The half maximal effective concentration (EC50) and the half maximal toxic concentration (TC50) values were calculated using the GraphPad Prism software.

[2] = tested on: GT1b/5a NS5B chimeric replicon; test: HCV replicon assay, GT1b/5a NS5B chimeric replicon, transient transfection; type: cell-based, hepatitis C virus; conditions: Hepatitis C virus, Huh-7, 72 h, read-out: GT5a EC50, GT1b/5a NS5B chimeric replicon, Huh-7 cells, luciferase, 72 hours
Description: as §1
(§4) To generate HCV NS5B chimeric replicons, the GT1 b replicon was used as a backbone with the NS5B gene replaced with the NS5B gene of GT2a, GT3a, GT4a and GT5a derived from clinical isolates. These NS5B genes were cloned into the GT1b backbone and were confirmed by sequencing.
as §3

[3] = tested on: GT1b L159F NS5B mutant replicon; test: HCV NS5B mutant replicon assay, GT1b L159F; type: cell-based; conditions: Hepatitis C virus, Huh-7, 72 h, read-out: GT1b L159F EC50
Description: as §1, §2, §3

[4] = tested on: GT1b/4a NS5B chimeric replicon; test: HCV replicon assay, GT1b/4a NS5B chimeric replicon, transient transfection; type: cell-based, hepatitis C virus; conditions: Hepatitis C virus, Huh-7, 72 h, read-out: GT4a EC50, GT1b/4a NS5B chimeric replicon, Huh-7 cells, luciferase, 72 hours
Description: as §1, §4, §3

[5] = tested on: GT1a L159F NS5B mutant replicon; test: HCV NS5B mutant replicon assay, GT1a L159F; type: cell-based; conditions: Hepatitis C virus, Huh-7, 72 h, read-out: GT1a L159F EC50
Description: as §1, §2, §3

[6] = tested on: GT3a L159F NS5B mutant replicon; test: HCV NS5B mutant replicon assay, GT3a L159F; type: cell-based; conditions: Hepatitis C virus, Huh-7, 72 h, read-out: GT3a L159F EC50
Description: as §1, §4, §2, §3

[7] = Nucleoside phosphoester stability in simulated intestinal fluid; type: in vitro ADME
Description: Test compounds at 2 μM were incubated at 37° C. with simulated intestinal fluid (SIF), which contains 0.68% (w/v) monobasic potassium phosphate and 1% (w/v) pancreatin in ultra-pure water (pH 6.8). Duplicate samples were used. Samples were removed at 0, 15, 30, 60, 120, 360 and 1440 min, immediately mixed with cold acetonitrile containing an internal standard (IS), and stored at −80° C. before analysis. Chlorambucil was used as a positive control. Samples were analyzed by a LC/MS/MS method, and disappearance of test compound was assessed by comparison of peak area ratios of analyte/IS and reported as % test compound remaining at each time point.

[8] = tested on: GT1b (Con1) HCV replicon; test: HCV replicon assay, wild type GT1b (Con1), luciferase based, stable format; type: cell-based, hepatitis C virus; conditions: Huh-7 cells
Description: as §1, §3

[9] = tested on: GT1b S96T NS5B mutant replicon; test: HCV NS5B mutant replicon assay, GT1b S96T; type: cell-based; conditions: Hepatitis C virus, Huh-7, 72 h, read-out: GT1b S96T EC50
Description: as §1, §2, §3

[10] = tested on: GT3a V321A NS5B mutant replicon; test: HCV NS5B mutant replicon assay, GT3a V321A; type: cell-based; conditions: Hepatitis C virus, Huh-7, 72 h, read-out: GT3a V321A EC50
Description: as §1, §4, §2, §3

[11] = tested on: GT1b C316N NS5B mutant replicon; test: HCV NS5B mutant replicon assay, GT1b C316N; type: cell-based; conditions: Hepatitis C virus, Huh-7, 72 h, read-out: GT1b C316N EC50
Description: as §1, §2, §3

[12] = tested on: GT3a S282T NS5B mutant replicon; test: HCV NS5B mutant replicon assay, GT3a S282T; type: cell-based; conditions: Hepatitis C virus, Huh-7, 72 h, read-out: GT3a S282T EC50
Description: as §1, §4, §2, §3

[13] = tested on: GT1a (H77) HCV replicon; test: HCV replicon assay, wild type GT1a (H77), luciferase based, stable format; type: cell-based, hepatitis C virus; conditions: Hepatitis C virus, GT1A, Huh-7, 72 h, Huh-7 cells
Description: as §1, §3

[14] = Nucleoside phosphoester stability in fetal bovine serum; type: in vitro ADME; conditions: 100 μM, 37° C.
Description: In another test, mononucleotide stock solutions were prepared at 10 mM in DMSO, and 10 μL of each stock solution was added to 1 mL of fetal bovine serum (FBS) to provide 100 μM of final compound concentration. These samples incubated for 24 h in a 37° C. water bath and 100 μL aliquots removed at t=0, 1, 2, 4, 6 and 24 hours. Individual samples were precipitated with 200 μL cold acetonitrile, the debris was pelleted at 14K RPM for 30 min at 4° C., and the supernatant was removed and subjected to LCMS analysis as described below.
Mobile phase A: 95:5 H2O:acetonitrile, 10 mM ammonium acetate, 0.01% formic acid
Mobile phase B: 95:5 acetonitrile:H2O, 10 mM ammonium acetate, 0.01% formic acid
Extracted ion chromatograms generated using M+1H and ammonium adduct for each compound.

[15] = Hepatitis C virus, GT1B, Huh-7, 72 h

| SMILES | pEC50 [1] | pEC50 [2] | pEC50 [3] | pEC50 [4] | pEC50 [5] | pEC50 [6] | pEC50 [8, 15] | pEC50 [9] | pEC50 [10] | pEC50 [11] | pEC50 [12] | pEC50 [13] | % t = 0 ([14]; 0 hours) | % t = 0 ([14]; 1 hour) | % t = 0 ([14]; 2 hours) | % t = 0 ([14]; 4 hours) | % t = 0 ([14]; 6 hours) | % t = 0 ([14]; 24 hours) | further results |
| --- | --- | --- | --- | --- | --- | --- | --- | --- | --- | --- | --- | --- | --- | --- | --- | --- | --- | --- | --- |
| CC(C)OC(=O)[C@H](C)N[P@](=O)(OC[C@H]1O[C@@H](n2ccc(=O)[nH]c2=O)[C@](C)(F)[C@@H]1O)Oc1ccccc1 [sofosbuvir, reference compound] | 6.16 to 6.71 | 7.19 | 7.20 | 7.27 | 7.10 | 6.87 | 7.18 to 7.44 | 6.50 to 7.21 | 6.78 | 7.60 | 6.24 to 7.08 | 7.21 to 7.40 | 100.0% | 96.2% | 96.5% | 89.0% | 91.6% | 102.2% | % Remaining ([7]; simulated intestinal fluid pH 6.8, 2 μM, 37° C., 0 min): 100.00%; % Remaining ([7]; simulated intestinal fluid pH 6.8, 2 μM, 37° C., 15 min): 5.57%; % Remaining ([7]; simulated intestinal fluid pH 6.8, 2 μM, 37° C., 30 min): 0.00%; % Remaining ([7]; simulated intestinal fluid pH 6.8, 2 μM, 37° C., 60 min): 0.00%; % Remaining ([7]; simulated intestinal fluid pH 6.8, 2 μM, 37° C., 120 min): 0.00%; % Remaining ([7]; simulated intestinal fluid pH 6.8, 2 μM, 37° C., 360 min): 0.00%; % Remaining ([7]; simulated intestinal fluid pH 6.8, 2 μM, 37° C., 1440 min): 0.00% |
| CC(C)(C)SSc1ccccc1CCOP1(=O)OC[C@H]2O[C@@H](n3ccc(=O)[nH]c3=O)[C@](C)(F)[C@@H]2O1 (single isomer, unassigned) [Compound 7A] | 7.22 | 8.10 | 7.77 to 7.82 | 8.30 | 7.96 | 7.82 | 8.05 | 8.10 | 7.92 | 8.05 | 7.36 | 8.10 to 8.30 | 100.0% | 101.0% | 101.0% | 100.9% | 92.5% | 87.9% | % Remaining ([7]; simulated gi fluid, 0 h, 2 μM, pH 6.8): 100.00%; % Remaining ([7]; simulated gi fluid, 0.25 h, 2 μM, pH 6.8): 102.65%; % Remaining ([7]; simulated gi fluid, 0.5 h, 2 μM, pH 6.8): 104.34%; % Remaining ([7]; simulated gi fluid, 1 h, 2 μM, pH 6.8): 111.04%; % Remaining ([7]; simulated gi fluid, 2 h, 2 μM, pH 6.8): 101.89%; % Remaining ([7]; simulated gi fluid, 6 h, 2 μM, pH 6.8): 121.95%; % Remaining ([7]; simulated gi fluid, 24 h, 2 μM, pH 6.8): 51.70%; pEC50 ([8]; 72 hours): 8.10 to 8.30 |
